Source: ChEMBL document CHEMBL5036301, “Heteroaryl ether analogues of an antileishmanial 7-substituted 2-nitroimidazooxazine lead afford attenuated hERG risk: In vitro and in vivo appraisal” (Eur J Med Chem, 2021)
≈ marks a conversion by molar mass, not a printed value.

What was measured:
[1] = system: Mycobacterium tuberculosis; assay: Antitubercular activity against Mycobacterium tuberculosis H37Rv assessed as reduction in microbial growth under anaerobic condition by luminescence analysis; type: functional
[2] = system: MRC5; assay: Cytotoxicity against human MRC5 cells assessed as cell viability after 72 hrs by fluorimetric analysis; type: ADME, cell-based; settings: MRC5, 72 h
[3] = system: Leishmania donovani; assay: Antileishmanial activity against Leishmania donovani amastigotes infected in BALB/C mouse assessed as reduction in parasite burden in liver tissue at 50 mg/kg, po administered once per day for 5 days relative to control; type: functional; settings: 120 h, time 5 day
[4] = system: Leishmania infantum; assay: Antileishmanial activity against Leishmania infantum MHOM/MA(BE)/67 amastigotes infected in macrophages assessed as reduction in parasite burden by giemsa staining based microscopic analysis; type: functional, organism-based
[5] = system: Trypanosoma cruzi; assay: Antitrypanosomal activity against Trypanosoma cruzi Tulahuen CL2 infected in human MRC-5 cells assessed as parasite growth; type: functional, organism-based; settings: Tulahuen CL2, MRC5
[6] = system: Leishmania donovani; assay: Antileishmanial activity against Leishmania donovani amastigotes infected in mouse J774A.1 cells incubated for 72 hrs by luciferase assay; type: functional, organism-based; settings: J774.A1, 72 h
[7] = Kinetic solubility of compound in water at pH7 by HPLC analysis; settings: pH 7
[8] = system: Mycobacterium tuberculosis; assay: Antitubercular activity against Mycobacterium tuberculosis H37Rv assessed as reduction in microbial growth under aerobic condition by luminescence analysis; type: functional
[9] = biological target: hERG (KCNH2) (Homo sapiens, UniProt Q12809); assay: Inhibition of human ERG expressed in HEK293 cells at 10 uM relative to control; type: cell-based; settings: HEK293 cells expressing human ERG
hERG (KCNH2), sequence (Q12809 whole entry): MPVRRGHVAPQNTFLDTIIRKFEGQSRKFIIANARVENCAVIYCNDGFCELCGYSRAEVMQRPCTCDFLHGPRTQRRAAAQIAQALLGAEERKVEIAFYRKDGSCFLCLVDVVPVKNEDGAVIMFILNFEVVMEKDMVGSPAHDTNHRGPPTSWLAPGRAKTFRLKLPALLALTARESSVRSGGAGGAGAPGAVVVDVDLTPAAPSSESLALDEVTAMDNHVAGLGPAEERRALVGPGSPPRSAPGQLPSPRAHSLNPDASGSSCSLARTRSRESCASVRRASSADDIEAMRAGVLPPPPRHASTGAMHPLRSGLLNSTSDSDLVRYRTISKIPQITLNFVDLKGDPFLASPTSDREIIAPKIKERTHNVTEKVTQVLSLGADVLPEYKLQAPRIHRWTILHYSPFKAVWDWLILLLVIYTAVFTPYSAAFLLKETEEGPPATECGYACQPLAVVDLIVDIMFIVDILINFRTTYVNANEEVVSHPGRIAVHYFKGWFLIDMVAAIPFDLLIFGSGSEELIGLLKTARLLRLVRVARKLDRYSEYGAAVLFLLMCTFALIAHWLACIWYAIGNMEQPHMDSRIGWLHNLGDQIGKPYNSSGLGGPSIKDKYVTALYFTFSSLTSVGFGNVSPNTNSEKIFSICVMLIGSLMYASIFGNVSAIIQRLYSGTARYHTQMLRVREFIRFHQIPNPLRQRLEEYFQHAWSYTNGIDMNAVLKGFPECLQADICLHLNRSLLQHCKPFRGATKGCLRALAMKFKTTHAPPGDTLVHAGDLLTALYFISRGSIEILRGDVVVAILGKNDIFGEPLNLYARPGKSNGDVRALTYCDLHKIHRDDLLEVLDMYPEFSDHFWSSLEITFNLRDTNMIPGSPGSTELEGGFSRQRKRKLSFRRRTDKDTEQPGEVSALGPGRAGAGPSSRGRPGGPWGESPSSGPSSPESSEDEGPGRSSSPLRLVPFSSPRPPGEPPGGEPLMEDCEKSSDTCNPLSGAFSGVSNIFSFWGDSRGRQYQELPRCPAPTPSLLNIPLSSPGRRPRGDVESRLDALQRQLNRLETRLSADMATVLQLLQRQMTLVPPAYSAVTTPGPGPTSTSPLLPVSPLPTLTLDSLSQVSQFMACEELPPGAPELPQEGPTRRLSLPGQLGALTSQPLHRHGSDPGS

[10] = Kinetic solubility of compound in 0.1 M Hcl at pH1 by HPLC analysis; type: physicochemical; settings: pH 1, read-out: Kinetic_solubility
[11] = Initial plasma concentration in mouse at 1 mg/kg, iv measured upto 24 hrs LC-MS/MS analysis
[12] = AUClast in mouse at 1 mg/kg, iv measured upto 24 hrs LC-MS/MS analysis; settings: in vivo
[13] = in vivo; settings: mouse, po, 25 mg/kg
[14] = in vivo; settings: mouse, po, 25 mg/kg; remark: listed apart in the source
[15] = AUClast in mouse at 25 mg/kg, po measured upto 24 hrs LC-MS/MS analysis; settings: in vivo
[16] = Clearance in mouse at 1 mg/kg, iv measured upto 24 hrs LC-MS/MS analysis; settings: in vivo
[17] = Volume of distribution at steady state in mouse at 1 mg/kg, iv measured upto 24 hrs LC-MS/MS analysis; settings: in vivo
[18] = Half life in mouse at 1 mg/kg, iv measured upto 24 hrs LC-MS/MS analysis; settings: in vivo
[19] = in vivo; settings: mouse, po, 25 mg/kg; remark: listed apart in the source
[20] = Selectivity index, ratio IC50 for cytotoxicity against human MRC5 cells to IC50 for antileishmanial activity against Leishmania infantum MHOM/MA(BE)/67 amastigotes infected in macrophages
[21] = Stability of compound in CD-1 mouse liver microsomes assessed as percentage of parent compound remaining at 1 uM measured after 1 hr
[22] = Stability of compound in hamster liver microsomes assessed as percentage of parent compound remaining at 1 uM measured after 1 hr; settings: chinese hamster
[23] = Stability of compound in human liver microsomes assessed as percentage of parent compound remaining at 1 uM measured after 1 hr

Row | Compound | MIC [1] [µM] | IC50 [2] [nM] | IC50 [4] [nM] | IC50 [5] [nM] | IC50 [6] [nM] | solubility kinetic [7] [µg/mL] | MIC [8] [µM] | selectivity ratio [20] | also measured
1 | O=[N+]([O-])c1cn2c(n1)OC(COc1ccc(C(F)(F)F)cn1)CC2 (configuration not stated) | 20 | > 64000 | > 64000 | 1000 | 80 | 37 (≈ 107 µM) | 2.6 | – | inhibition in vivo at 50 mg/kg [3]: 46%; inhibition at 10 µM [9]: 4%; solubility kinetic [10]: 32 µg/mL (≈ 93 µM)
2 | C[C@@]1(COc2ccc(C(F)(F)F)nc2)CCn2cc([N+](=O)[O-])nc2O1 | > 128 | > 64000 | 2300 | 1800 | 740 | 15 (≈ 41.9 µM) | > 128 | – | C0 at 24 h [11]: 1900 ng/mL; AUC(0-t) at 24 h [12]: 2760 ng·h/mL; inhibition in vivo at 50 mg/kg [3]: 46%; Tmax at 24 h [13]: 2 h; bioavailability at 24 h [14]: 54%; AUC(0-t) at 24 h [15]: 37200 ng·h/mL; clearance at 24 h [16]: 6 mL/min/kg; Vd at 24 h [17]: 0.75 L/kg; half-life at 24 h [18]: 1.2 h; Cmax at 24 h [19]: 8000 ng/mL
3 | CC1(COc2cc(C(F)(F)F)ccn2)CCn2cc([N+](=O)[O-])nc2O1 (configuration not stated) | – | > 64000 | 450 | 860 | – | – | – | > 142 | –
4 | CC1(COc2ncc(C(F)(F)F)cn2)CCn2cc([N+](=O)[O-])nc2O1 (configuration not stated) | – | > 64000 | > 64000 | 3100 | – | 9.3 (≈ 25.9 µM) | – | – | remaining at 1 h, 1 µM [21]: 86%; inhibition in vivo at 50 mg/kg [3]: 35%; remaining at 1 h, 1 µM [22]: 40%; remaining at 1 h, 1 µM [23]: 88%
5 | CC1(COc2ccc(C(F)(F)F)cc2)CCn2cc([N+](=O)[O-])nc2O1 (configuration not stated) | 4.1 | > 64000 | 160 | 150 | 160 | – | 0.8 | > 400 | –
6 | CC1(COc2ccc(Oc3ccccc3)cc2)CCn2cc([N+](=O)[O-])nc2O1 (configuration not stated) | 2.7 | > 64000 | 170 | 250 | 170 | – | 0.7 | > 376 | –
7 | CC1(COc2ncc(C(F)(F)F)cc2F)CCn2cc([N+](=O)[O-])nc2O1 (configuration not stated) | – | > 64000 | 470 | 730 | – | 13 (≈ 34.6 µM) | – | > 136 | remaining at 1 h, 1 µM [21]: 44%; inhibition in vivo at 50 mg/kg [3]: 56%; remaining at 1 h, 1 µM [22]: 0.4%; remaining at 1 h, 1 µM [23]: 64%
8 | O=[N+]([O-])c1cn2c(n1)OC(COc1cc(C(F)(F)F)ccn1)CC2 (configuration not stated) | – | > 64000 | > 64000 | 1000 | – | – | – | – | –
9 | CC1(COc2ccc(F)cn2)CCn2cc([N+](=O)[O-])nc2O1 (configuration not stated) | 19 | > 64000 | 1600 | 3300 | 260 | – | 2.3 | > 40 | –
10 | CC1(COc2cccc(C(F)(F)F)n2)CCn2cc([N+](=O)[O-])nc2O1 (configuration not stated) | – | > 64000 | 580 | 440 | – | – | – | > 110 | –
11 | O=[N+]([O-])c1cn2c(n1)OC(COc1ccc(C(F)(F)F)nc1)CC2 (configuration not stated) | – | > 64000 | > 64000 | 1100 | 110 | 29 (≈ 84.2 µM) | – | – | C0 at 24 h [11]: 2300 ng/mL; AUC(0-t) at 24 h [12]: 3100 ng·h/mL; Tmax at 24 h [13]: 0.25 h; bioavailability at 24 h [14]: 39%; AUC(0-t) at 24 h [15]: 15100 ng·h/mL; clearance at 24 h [16]: 5.4 mL/min/kg; Vd at 24 h [17]: 0.47 L/kg; half-life at 24 h [18]: 1.1 h; Cmax at 24 h [19]: 5800 ng/mL; inhibition at 10 µM [9]: 4%
12 | CC1(COc2ccc(Cl)nc2)CCn2cc([N+](=O)[O-])nc2O1 (configuration not stated) | – | > 64000 | 2800 | 930 | 860 | – | – | > 23 | –
13 | CC1(COc2ncc(Cl)cn2)CCn2cc([N+](=O)[O-])nc2O1 (configuration not stated) | – | > 64000 | > 64000 | 3700 | 320 | – | – | – | –
14 | CC1(COc2ccccc2)CCn2cc([N+](=O)[O-])nc2O1 (configuration not stated) | 8.1 | > 64000 | 520 | 590 | 300 | – | 1.3 | > 123 | –
